According to ChEMBL document CHEMBL1121459, “Relationship of octanol/water partition coefficient and molecular weight to rat brain capillary permeability” (J Med Chem, 1980):

Legend:
physchem = conditions: octanol/water
Description: Partition coefficient (logP)

[1] = octanol/water
Description: Partition coefficient (logP)

In the case of `O=C1NC2(CCCCC2)C(=O)N1CCN(CCCl)CCCl` [SPIROMUSTINE], the logP (physchem) was 2.47.
With `O[C@@H]1CO[C@H]2[C@@H]1OC[C@H]2O` the logP (physchem) was -1.29.
`Cc1ncc([N+](=O)[O-])n1CCO` [METRONIDAZOLE] gave a logP (physchem) of -0.16.
Compound `CCc1nc(N)nc(N)c1-c1ccc(Cl)c(Cl)c1` [ETOPRINE] has a logP (physchem) of 3.19.
Compound BLEOMYCIN has a logP [1] of -3.3.
Compound `OC[C@@H](O)[C@@H](O)[C@H](O)[C@H](O)CO` [MANNITOL] has a logP (physchem) of -3.1.
With `CC[C@]1(O)C[C@H]2CN(CCc3c([nH]c4ccccc34)[C@@](C(=O)OC)(c3cc4c(cc3OC)N(C=O)[C@H]3[C@@](O)(C(=O)OC)[C@H](OC(C)=O)[C@]5(CC)C=CCN6CC[C@]43[C@@H]65)C2)C1` [VINCRISTINE] the logP (physchem) was 2.8.
`COc1cc([C@@H]2c3cc4c(cc3[C@@H](O[C@@H]3O[C@@H]5CO[C@@H](c6cccs6)O[C@H]5[C@H](O)[C@H]3O)[C@H]3COC(=O)[C@H]23)OCO4)cc(OC)c1O` [TENIPOSIDE] showed a logP [1] of 2.8.
In the case of `OCC(O)CO` [GLYCERIN], the logP (physchem) was -1.75.
For `O=NN(CCCl)C(=O)NC1CCC(=O)NC1=O` (stereo not given), the logP (physchem) was 0.37.
In the case of `NC(N)=O` [UREA], the logP [1] was -2.8.
With `O=c1[nH]cc(F)c(=O)[nH]1` [FLUOROURACIL] the logP (physchem) was -0.95.
In the case of `Cc1cc(N2C(N)=NC(N)=NC2(C)C)ccc1OCc1cccc(C(N)=O)c1`, the logP (physchem) was -2.46.
Work on `O=NN(CCCl)C(=O)NCCCl` [CARMUSTINE] yielded a logP (physchem) of 1.54.
`O=NN(CCCl)C(=O)NC1CCCCC1` [LOMUSTINE] showed a logP (physchem) of 2.83.
Work on `O=C1OC(C(O)CO)C(O)=C1O` (stereo not given) yielded a logP [1] of -4.04.
Work on `OC(CBr)C(O)C(O)C(O)CBr` (stereo not given) yielded a logP (physchem) of -0.29.
In the case of `CN1CC(=O)NC1=N` [CREATININE], the logP [1] was -1.77.
`O=c1[nH]c(=O)n(C2CCCO2)cc1F` (stereo not given) [TEGAFUR] showed a logP (physchem) of -0.48.
With `COc1cccc2c1C(=O)c1c(O)c3c(c(O)c1C2=O)C[C@@](O)(C(=O)CO)C[C@@H]3O[C@H]1C[C@H](N)[C@H](O)[C@H](C)O1` [DOXORUBICIN] the logP (physchem) was -0.1.
